Results published in patent US10131652B2, “Pyrimidinyloxy benzene derivatives as herbicides” (E. I. DU PONT DE NEMOURS AND COMPANY, priority 2014, dated 2018).

What was measured:
Assay in all cases: Test F pre-/postemergence plant response
Format in all cases: in vivo
Conditions in all cases: scale 0 to 100
[1] = tested on: arrowleaf sida (Sida rhombifolia)
Procedure, shortened: (§1)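 Plant response is a visual score from 0, meaning no effect, to 100, meaning complete control, assigned by comparison with untreated plants. Ratings were made 14 to 21 days after preemergence application to seeded silt loam or postemergence application to plants at the 1- to 4-leaf stage.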

[2] = tested on: fall panicum (Panicum dichotomiflorum)
Procedure, shortened: as §1

corn (Zea mays) = tested on: corn (Zea mays)
Procedure, shortened: as §1

kochia (Kochia scoparia) = tested on: kochia (Kochia scoparia)
Procedure, shortened: as §1

[3] = tested on: velvetleaf (Abutilon theophrasti)
Procedure, shortened: as §1

[4] = tested on: goosegrass (Eleusine indica)
Procedure, shortened: as §1

[5] = tested on: palmer pigweed (Amaranthus palmeri)
Procedure, shortened: as §1

[6] = tested on: giant foxtail (Setaria faberii)
Procedure, shortened: as §1

[7] = tested on: surinam grass (Brachiaria decumbens)
Procedure, shortened: as §1

[8] = tested on: field bindweed (Convolvulus arvensis)
Procedure, shortened: as §1

soybean (Glycine max) = tested on: soybean (Glycine max)
Procedure, shortened: as §1

Fc1ccc(Oc2ncc(Cl)cn2)c(-c2cc(C(F)F)on2)c1Cl [Compound 96]
60: Plant response rating, Velvetleaf ([3]; 31 g ai/ha Preemergence) | Plant response rating, Goosegrass ([4]; 125 g ai/ha Preemergence) | Plant response rating, Field Bindweed ([8]; 62 g ai/ha Preemergence)
90: Plant response rating, Arrowleaf Sida ([1]; 62 g ai/ha Postemergence) | Plant response rating, Arrowleaf Sida ([1]; 125 g ai/ha Preemergence) | Plant response rating, Kochia (kochia (Kochia scoparia); 125 g ai/ha Preemergence) | Plant response rating, Pigweed, Palmer ([5]; 125 g ai/ha Postemergence)
25: Plant response rating, Panicum, Fall ([2]; 125 g ai/ha Postemergence)
20: Plant response rating, Foxtail, Giant ([6]; 125 g ai/ha Preemergence) | Plant response rating, Field Bindweed ([8]; 62 g ai/ha Postemergence)
70: Plant response rating, Arrowleaf Sida ([1]; 16 g ai/ha Postemergence) | Plant response rating, Arrowleaf Sida ([1]; 31 g ai/ha Preemergence) | Plant response rating, Panicum, Fall ([2]; 125 g ai/ha Preemergence) | Plant response rating, Pigweed, Palmer ([5]; 16 g ai/ha Postemergence)
50: Plant response rating, Arrowleaf Sida ([1]; 16 g ai/ha Preemergence) | Plant response rating, Panicum, Fall ([2]; Preemergence) | Plant response rating, Goosegrass ([4]; 16 g ai/ha Preemergence) | Plant response rating, Field Bindweed ([8]; 125 g ai/ha Postemergence)
100: Plant response rating, Pigweed, Palmer ([5]; 125 g ai/ha Preemergence) | Plant response rating, Pigweed, Palmer ([5]; Preemergence)
5: Plant response rating, Corn (corn (Zea mays); 31 g ai/ha Postemergence) | Plant response rating, Field Bindweed ([8]; 16 g ai/ha Postemergence)
95: Plant response rating, Arrowleaf Sida ([1]; 125 g ai/ha Postemergence) | Plant response rating, Kochia (kochia (Kochia scoparia); 125 g ai/ha Postemergence) | Plant response rating, Pigweed, Palmer ([5]; 62 g ai/ha Postemergence)
15: Plant response rating, Panicum, Fall ([2]; 31 g ai/ha Postemergence)
40: Plant response rating, Panicum, Fall ([2]; 31 g ai/ha Preemergence) | Plant response rating, Goosegrass ([4]; 31 g ai/ha Preemergence) | Plant response rating, Goosegrass ([4]; Preemergence) | Plant response rating, Field Bindweed ([8]; 125 g ai/ha Preemergence) | Plant response rating, Soybean (soybean (Glycine max); 16 g ai/ha Postemergence) | Plant response rating, Soybean (soybean (Glycine max); 62 g ai/ha Postemergence)
75: Plant response rating, Kochia (kochia (Kochia scoparia); 31 g ai/ha Postemergence) | Plant response rating, Kochia (kochia (Kochia scoparia); 62 g ai/ha Postemergence)
98: Plant response rating, Pigweed, Palmer ([5]; 31 g ai/ha Preemergence)
0: Plant response rating, Panicum, Fall ([2]; 16 g ai/ha Postemergence) | Plant response rating, Corn (corn (Zea mays); 16 g ai/ha Postemergence) | Plant response rating, Corn (corn (Zea mays); 16 g ai/ha Preemergence) | Plant response rating, Corn (corn (Zea mays); 31 g ai/ha Preemergence) | Plant response rating, Corn (corn (Zea mays); 62 g ai/ha Preemergence) | Plant response rating, Corn (corn (Zea mays); 125 g ai/ha Preemergence) | Plant response rating, Kochia (kochia (Kochia scoparia); 16 g ai/ha Preemergence) | Plant response rating, Kochia (kochia (Kochia scoparia); 31 g ai/ha Preemergence) | Plant response rating, Velvetleaf ([3]; 16 g ai/ha Preemergence) | Plant response rating, Foxtail, Giant ([6]; 16 g ai/ha Preemergence) | Plant response rating, Foxtail, Giant ([6]; 31 g ai/ha Preemergence) | Plant response rating, Foxtail, Giant ([6]; 62 g ai/ha Preemergence) | Plant response rating, Surinam Grass ([7]; 16 g ai/ha Preemergence) | Plant response rating, Surinam Grass ([7]; 31 g ai/ha Preemergence) | Plant response rating, Surinam Grass ([7]; 125 g ai/ha Preemergence) | Plant response rating, Surinam Grass ([7]; Preemergence) | Plant response rating, Field Bindweed ([8]; 16 g ai/ha Preemergence) | Plant response rating, Field Bindweed ([8]; 31 g ai/ha Preemergence) | Plant response rating, Soybean (soybean (Glycine max); 16 g ai/ha Preemergence) | Plant response rating, Soybean (soybean (Glycine max); 31 g ai/ha Preemergence) | Plant response rating, Soybean (soybean (Glycine max); 125 g ai/ha Preemergence) | Plant response rating, Soybean (soybean (Glycine max); Preemergence)
80: Plant response rating, Arrowleaf Sida ([1]; 31 g ai/ha Postemergence) | Plant response rating, Arrowleaf Sida ([1]; 62 g ai/ha Preemergence) | Plant response rating, Velvetleaf ([3]; 125 g ai/ha Preemergence) | Plant response rating, Velvetleaf ([3]; Preemergence) | Plant response rating, Pigweed, Palmer ([5]; 16 g ai/ha Preemergence) | Plant response rating, Pigweed, Palmer ([5]; 31 g ai/ha Postemergence) | Plant response rating, Soybean (soybean (Glycine max); 125 g ai/ha Postemergence)
10: Plant response rating, Panicum, Fall ([2]; 62 g ai/ha Postemergence) | Plant response rating, Corn (corn (Zea mays); 62 g ai/ha Postemergence) | Plant response rating, Corn (corn (Zea mays); 125 g ai/ha Postemergence) | Plant response rating, Field Bindweed ([8]; 31 g ai/ha Postemergence)
65: Plant response rating, Kochia (kochia (Kochia scoparia); 16 g ai/ha Postemergence) | Plant response rating, Kochia (kochia (Kochia scoparia); Preemergence)
